Assay results taken from US20220064167A1, “IMIDAZO-PYRAZOLE CARBOXAMIDE DERIVATIVES AS ANTICANCER AGENTS AND THE SYNTHESIS THEREOF” (AVIDIN KFT., priority 2018, published 2022).

Assays:
[1] = tested on: human breast adenocarcinoma cell line, MCF-7; test: resazurin viability assay, 72 h (Table 1); type: cell-based; conditions: MCF7, 72h incubation, 156 nM-100 μM
Excerpt: (§1) In our experiments three different cell lines were used. Cells were purchased from the American Type Culture Collection (ATCC, Manassas, Va., USA). The human breast adenocarcinoma cell line, MCF-7 cells were maintained in Dulbecco's Modified Eagle Medium/Nutrient Mixture F-12 (DMEM/F12) 10% fetal calf serum (FCS, Gibco) and mouse mammary carcinoma 4T1 and human promyelocytic leukemia, HL-60 cells were maintained in Roswell Park Memorial Institute 1640 medium (RPMI-1640) 10% FCS. Media were supplemented with 2 mM GlutaMAX, and 100 U/mL penicillin, 100 μg/mL streptomycin (Life Technologies, Carlsbad, Calif., USA). Cell cultures were maintained at 37° C. in a humidified incubator in an atmosphere of 5% CO2 (Sanyo, Japan).
(§2) For viability assays cells were seeded in 96 well plates (MCF7 and 4T1: 6000, HL60: 120.000 cells/well) and incubated overnight. Compounds were dissolved in dimethyl sulfoxide (DMSO). Cells were treated with an increasing concentration of compounds having the general formula (I.) (156 nM-100 μM). Cell viability was determined after 72h incubation. Resazurin reagent (Sigma-Aldrich) was dissolved in PBS (pH 7.4) at 0.15 mg/ml concentration, sterile filtered (0.22 μm, Merck Millipore) and aliquoted at −20° C. Resazurin reagent (Sigma-Aldrich) was added at a final concentration of 25 μg/ml. After 2 hours incubation at 37° C. 5% CO2 fluorescence (530 nm excitation/580 nm emission) was recorded on a multimode microplate reader (Cytofluor4000, PerSeptive Biosytems). Viability was calculated with relation to untreated control cells and blank wells containing media without cells. IC50 values (50% inhibiting concentration) were calculated by GraphPad Prism® 5 (La Jolla, Calif., USA).

[2] = tested on: mouse mammary carcinoma 4T1; test: resazurin viability assay, 72 h (Table 1); type: cell-based; conditions: 72h incubation, 156 nM-100 μM
Excerpt: as §1, §2

[3] = tested on: human promyelocytic leukemia, HL-60 cells; test: resazurin viability assay, 72 h (Table 1); type: cell-based; conditions: 72h incubation, 156 nM-100 μM
Excerpt: as §1, §2

SMILES | IC50 [1] | IC50 [2] | IC50 [3] | melting point
CC(C)(C)c1[nH]c2c(C(N)=O)cnn2c1NC1CCCCC1 [Example 18, 2-(Tert-butyl)-3-(cyclohexylamino)-1H-imidazo[1,2-b]pyrazole-7-carboxamide] | 4.07 µM | 4.24 µM | 2.95 µM | 148 to 149 °C
CC(C)(C)Nc1c(C(C)(C)C)[nH]c2c(C(N)=O)cnn12 [Example 19, 2-(Tert-butyl)-3-(tert-butylamino)-1H-imidazo[1,2-b]pyrazole-7-carboxamide] | 27.9 µM | 23.9 µM | 4.99 µM | 221 °C
COc1ccc(Nc2c(C(C)(C)C)[nH]c3c(C(N)=O)cnn23)cc1 [Example 20, 2-(Tert-butyl)-3-((4-methoxyphenyl)amino)-1H-imidazo[1,2-b]pyrazole-7-carboxamide] | > 50 µM | > 50 µM | 8.8 µM | 260 to 262 °C
CC(C)(C)c1[nH]c2c(C(N)=O)cnn2c1Nc1ccc(F)cc1 [Example 21, 2-(Tert-butyl)-3-((4-fluorophenyl)amino)-1H-imidazo[1,2-b]pyrazole-7-carboxamide] | 40.5 µM | > 50 µM | 24.4 µM | 249 to 250 °C
CC(C)(C)CC(C)(C)Nc1c(C2CC2)[nH]c2c(C(N)=O)cnn12 [Example 23, 2-Cyclopropyl-3-((2,4,4-trimethylpentan-2-yl)amino)-1H-imidazo[1,2-b]pyrazole-7-carboxamide] | > 50 µM | > 50 µM | 5.49 µM | 205 to 207 °C
CCc1[nH]c2c(C(N)=O)cnn2c1NC(C)(C)CC(C)(C)C [Example 24, 2-Ethyl-3-((2,4,4-trimethylpentan-2-yl)amino)-1H-imidazo[1,2-b]pyrazole-7-carboxamide] | > 50 µM | > 50 µM | 27.9 µM | 207 to 209 °C
CC(C)c1[nH]c2c(C(N)=O)cnn2c1NC(C)(C)CC(C)(C)C [Example 25, 2-Isopropyl-3-((2,4,4-trimethylpentan-2-yl)amino)-1H-imidazo[1,2-b]pyrazole-7-carbox-amide] | 10.6 µM | 3.63 µM | 7.79 µM | 132 to 134 °C
C=CCC(C)(C)c1[nH]c2c(C(N)=O)cnn2c1NC(C)(C)CC(C)(C)C [Example 26, 2-(2-Methylpent-4-en-2-yl)-3-((2,4,4-trimethylpentan-2-yl)amino)-1H-imidazo[1,2-b]pyrazole-7-carboxamide] | 8.29 µM | 9.95 µM | 1.37 µM | 161 to 163 °C
CCC(CC)(CCC#N)c1[nH]c2c(C(N)=O)cnn2c1NC(C)(C)CC(C)(C)C [Example 27, 2-(1-Cyano-3-ethylpentan-3-yl)-3-((2,4,4-trimethylpentan-2-yl)amino)-1H-imidazo[1,2-b]pyrazole-7-carboxamide] | 18 µM | 11.6 µM | 14.8 µM | 184 to 186 °C
CNC(=O)c1cnn2c(NC(C)(C)CC(C)(C)C)c(C(C)(C)C)[nH]c12 [Example 28, 2-(Tert-butyl)-N-methyl-3-((2,4,4-trimethylpentan-2-yl)amino)-1H-imidazo[1,2-b]pyrazole-7-carboxamide] | 4.46 µM | 4.66 µM | 1.52 µM | 173 to 174 °C
CCCCNC(=O)c1cnn2c(NC(C)(C)CC(C)(C)C)c(C(C)(C)C)[nH]c12 [Example 29, 2-(Tert-butyl)-N-butyl-3-((2,4,4-trimethylpentan-2-yl)amino)-1H-imidazo[1,2-b]pyrazole-7-carboxamide] | 34.1 µM | > 50 µM | 2.72 µM | 147 to 148 °C

Next, values leading:

IC50 [1] | IC50 [2] | IC50 [3] | melting point | SMILES
1.69 µM | 4.01 µM | 1.61 µM | 161 °C | CC(C)(C)CC(C)(C)Nc1c(C(C)(C)C)[nH]c2c(C(=O)NC3CC3)cnn12 [Example 31, 2-(Tert-butyl)-N-cyclopropyl-3-((2,4,4-trimethylpentan-2-yl)amino)-1H-imidazo[1,2-b]pyrazole-7-carboxamide]
8.57 µM | 9.31 µM | 6.26 µM | 118 to 119 °C | CC(C)(C)CC(C)(C)Nc1c(C(C)(C)C)[nH]c2c(C(=O)NCc3ccccc3)cnn12 [Example 33, N-Benzyl-2-(tert-butyl)-3-((2,4,4-trimethylpentan-2-yl)amino)-1H-imidazo[1,2-b]pyrazole-7-carboxamide]
18.3 µM | 28.5 µM | 0.604 µM | 147 °C | CC(C)(C)CC(C)(C)Nc1c(C(C)(C)C)[nH]c2c(C(=O)Nc3ccccc3)cnn12 [Example 34, 2-(Tert-butyl)-N-phenyl-3-((2,4,4-trimethylpentan-2-yl)amino)-1H-imidazo[1,2-b]pyrazole-7-carboxamide]
8.35 µM | 6.91 µM | 4.38 µM | 144 to 145 °C | CC(C)(C)CC(C)(C)Nc1c(C(C)(C)C)[nH]c2c(C(=O)Nc3ccccn3)cnn12 [Example 35, 2-(Tert-butyl)-N-(pyridin-2-yl)-3-((2,4,4-trimethylpentan-2-yl)amino)-1H-imidazo[1,2-b]pyrazole-7-carboxamide]
1.9 µM | 2.59 µM | 0.934 µM | 186 to 187 °C | CC(C)(C)CC(C)(C)Nc1c(C(C)(C)C)[nH]c2c(C(=O)Nc3cccnc3)cnn12 [Example 36, 2-(Tert-butyl)-N-(pyridin-3-yl)-3-((2,4,4-trimethylpentan-2-yl)amino)-1H-imidazo[1,2-b]pyrazole-7-carboxamide]
2.55 µM | 4.34 µM | 2.71 µM | 185 to 186 °C | CC(C)(C)CC(C)(C)Nc1c(C(C)(C)C)[nH]c2c(C(=O)Nc3ccncc3)cnn12 [Example 37, 2-(Tert-butyl)-N-(pyridin-4-yl)-3-((2,4,4-trimethylpentan-2-yl)amino)-1H-imidazo[1,2-b]pyrazole-7-carboxamide]
1.95 µM | 2.41 µM | 2.86 µM | 125 to 127 °C | CC(C)(C)CC(C)(C)Nc1c(C(C)(C)C)[nH]c2c(C(=O)Nc3nccs3)cnn12 [Example 38, 2-(Tert-butyl)-N-(thiazol-2-yl)-3-((2,4,4-trimethylpentan-2-yl)amino)-1H-imidazo[1,2-b]pyrazole-7-carboxamide]
1.7 µM | 2.85 µM | 0.935 µM | 185 to 186 °C | CC(C)(C)CC(C)(C)Nc1c(C(C)(C)C)[nH]c2c(C(=O)Nc3ccon3)cnn12 [Example 39, 2-(Tert-butyl)-N-(isoxazol-3-yl)-3-((2,4,4-trimethylpentan-2-yl)amino)-1H-imidazo[1,2-b]pyrazole-7-carboxamide]
30.6 µM | > 50 µM | 2.12 µM | 172 °C | Cc1ccccc1NC(=O)c1cnn2c(NC(C)(C)CC(C)(C)C)c(C(C)(C)C)[nH]c12 [Example 40, 2-(Tert-butyl)-N-(o-tolyl)-3-((2,4,4-trimethylpentan-2-yl)amino)-1H-imidazo[1,2-b]pyrazole-7-carboxamide]
